From the RepoRT retention time repository (doi:10.1021/acs.analchem.2c02893)

Test: RP, Thermo Scientific Acclaim RSLC 120 C18, 100 × 2.1 mm, 2.2 µm, 30 °C, 0.2 mL/min, estimated dead time 1.1 min; A: 90% water + 10% methanol + 0.01% formic acid + 5 mM ammonium formate, pH 3.61; B: methanol + 0.01% formic acid + 5 mM ammonium formate, pH 3.61; gradient (min/%B) 0/1 1/1 2/39 13/99.9 15/99.9 15.1/1 20.1/1
Details: stereoisomer not certain

Row | SMILES | LC retention time [min]
1 | COC(=O)C1=C(C)NC(C)=C(C(=O)OC(C)(C)CN(C)CCC(c2ccccc2)c2ccccc2)C1c1cccc([N+](=O)[O-])c1 (stereo not given) [Lercanidipine] | 11.1
2 | CC(Oc1ccc(Oc2nc3ccc(Cl)cc3o2)cc1)C(=O)O (stereo not given) [Fenoxaprop-P] | 9.83
3 | CCC1CCCC(OC2CCC(N(C)C)C(C)O2)C(C)C(=O)C2=CC3C(C=CC4CC(OC5OC(C)C(OC)C(OC)C5OC)CC43)C2CC(=O)O1 (stereo not given) [Spinosyn A] | 11.2
4 | CC(C)c1c(C(=O)Nc2ccccc2)c(-c2ccccc2)c(-c2ccc(F)cc2)n1CCC(O)CC(O)CC(=O)O (stereo not given) [Atorvastatin] | 9.96
5 | CCNc1nc(NCC)[nH]c(=O)n1 [Simazine-2-hydroxy] | 4.21
6 | CC(COc1ccccc1)NC(C)C(O)c1ccc(O)cc1 (stereo not given) [Isoxsuprine] | 5.28
7 | Cc1ccsc1C(=CCCN1CCCC(C(=O)O)C1)c1sccc1C (stereo not given) [Tiagabine] | 8.43
8 | N[C@@H](Cc1cc(I)c(Oc2cc(I)c(O)c(I)c2)c(I)c1)C(=O)O [L-Thyroxine] | 9.39
9 | CCNC(C)C(O)c1ccc(O)c(O)c1 (stereo not given) [Dioxethedrin] | 1.99
10 | CCOP(=S)(OCC)Oc1ccc(S(C)=O)cc1 (stereo not given) [Fensulfothion] | 8.27
11 | CCNc1nc(Cl)nc(NCC)n1 [Simazine] | 7.07
12 | Cn1c(=O)c2c(ncn2CCO)n(C)c1=O [Etofylline] | 4.09
13 | CCN(CCO)CCCC(C)Nc1ccnc2cc(Cl)ccc12 (stereo not given) [Chloroquine-Hydroxy] | 3.98
14 | COC(C)C(O)(C(=O)OCC1=CC[N+]2([O-])CCC(O)C12)C(C)C (stereo not given) [Heliotrine-N-oxide] | 3.49
15 | Cc1cc(C)cc(C(=O)N(NC(=O)c2ccc3c(c2C)CCCO3)C(C)(C)C)c1 [Chromafenozide] | 9.93
16 | CCC(CO)NC(=O)C1C=C2c3cccc4[nH]cc(c34)CC2N(C)C1 (stereo not given) [Ergometrine-Methyl] | 4.34
17 | CC(=O)C1CCC2C3CCC4=CC(=O)CCC4(C)C3CCC12C (stereo not given) [Progesterone] | 11.2
18 | CC(C)=NOCCOC(=O)C(C)Oc1ccc(Oc2cnc3cc(Cl)ccc3n2)cc1 (stereo not given) [Propaquizafop] | 12.3
19 | CCN(CC)C(=O)c1cccc(C)c1 [DEET (Diethyltoluamide)] | 8.2
20 | CN1CCN2c3ncc(O)cc3Cc3ccccc3C2C1 (stereo not given) [Mirtazapine- 8-OH] | 4.54
21 | CN1C(=O)CCS(=O)(=O)C1c1ccc(Cl)cc1 (stereo not given) [Chlormezanone] | 5.94
22 | CCCCC(=O)N(Cc1ccc(-c2ccccc2-c2nn[nH]n2)cc1)C(C(=O)O)C(C)C (stereo not given) [Valsartan] | 9.21

Row | SMILES | LC retention time [min]
23 | CC=C1CC(C)C(O)(CO)C(=O)OCC2=CCN3CCC(OC1=O)C23 (stereo not given) [Retrorsine] | 4.01
24 | CCOC(=O)C1=C(COCCN)NC(C)=C(C(=O)OC)C1c1ccccc1Cl (stereo not given) [Amlodipine] | 8.36
25 | CCNC(C)C(=O)c1ccc(C)cc1 (stereo not given) [MEC (4-)] | 4.74
26 | CN(C)CCc1ccc(O)cc1 [Hordenine] | 2.28
27 | CCOP(=S)(OCC)SCCS(=O)CC (stereo not given) [Disulfoton-sulfoxide] | 7.86
28 | COC1(C)CC(c2ccccc2)c2c(c3ccccc3oc2=O)O1 (stereo not given) [Pyranocoumarin] | 11.1
29 | COC(=O)C(NC(=O)c1nn(CC2CCCCC2)c2ccccc12)C(C)C (stereo not given) [MA-CHMINACA] | 12.4
30 | COc1cc(CCN)c(OC)cc1Br [2C-B] | 5.56
31 | CNCCN1C(=O)C(OC(C)=O)C(c2ccc(OC)cc2)Sc2ccccc21 (stereo not given) [Diltiazem-Nor] | 7.21
32 | CN(C)CCN(Cc1ccccc1)c1ccccn1 [Pyribenzamine (Tripelenamine. Azaron)] | 5.86
33 | Clc1ccc2nsnc2c1NC1=NCCN1 [Tizanidine] | 3.64
34 | CCCOCCN(C(=O)CCl)c1c(CC)cccc1CC [Pretilachlor] | 11.8
35 | O=C(O)Cc1cn(-c2ccccc2)nc1-c1ccc(Cl)cc1 [Lonazolac] | 10.4
36 | O=C(CCCN1CC=C(n2c(=O)[nH]c3ccccc32)CC1)c1ccc(F)cc1 [Droperidol] | 6.16
37 | CCNc1nc(NC(C)(C)C)nc(OC)n1 [Terbumeton] | 9.16
38 | CCNC1C2CCC(C2)C1c1ccccc1 (stereo not given) [Fencamfamine] | 6.08
39 | CNC(=O)C=C(C)OP(=O)(OC)OC [Monocrotophos] | 4.36
40 | O=C(CCCN1CCC(O)(c2ccc(Cl)cc2)CC1)c1ccc(F)cc1 [Haloperidol] | 7.18
41 | Cn1c(=O)c2c(ncn2CCCNCC(O)c2cc(O)cc(O)c2)n(C)c1=O (stereo not given) [Reproterol] | 3.56
42 | c1cc2c(cc1CN1CCNCC1)OCO2 [Piperazine -1-Piperonyl] | 4.22
43 | CC(C)N(C(=O)CCl)c1ccccc1 [Propachlor] | 8.25
44 | O=C(NC1CCN(CCc2c[nH]c3ccccc23)CC1)c1ccccc1 [Indoramin] | 5.37

Row | SMILES | LC retention time [min]
45 | N#Cc1nn(-c2c(Cl)cc(C(F)(F)F)cc2Cl)c(N)c1S(=O)C(F)(F)F (stereo not given) [Fipronil] | 10.5
46 | Clc1ccc2c(c1)N=C(N1CCNCC1)c1ccccc1N2 [Clozapine-Nor] | 7.29
47 | CCCCC(CC)CN1C(=O)C2C3C=CC(C3)C2C1=O (stereo not given) [MGK-264] | 11.6
48 | COc1ccc2cc(C(C)C(=O)O)ccc2c1 (stereo not given) [Naproxen] | 8.99
49 | CCC(NC)C(=O)c1ccc2c(c1)OCO2 (stereo not given) [Butylone] | 4.34
50 | Cc1nc(N(C)C)nc(OC(=O)N(C)C)c1C [Pirimicarb] | 7.77
51 | CCc1cccc(C)c1N(C(=O)C(=O)O)C(C)C(=O)O (stereo not given) | 6.84
52 | CN(c1nccc(=O)[nH]1)C1CCN(c2nc3ccccc3n2Cc2ccc(F)cc2)CC1 [Mizolastine] | 9.14
53 | CCCCOC(=O)N(C)SN(C)C(=O)Oc1cccc2c1OC(C)(C)C2 [Furathiocarb] | 12.1
54 | CC1C=CC=CCCC=CC=CC=CC=CC(OC2OC(C)C(O)C(N)C2O)CC2OC(O)(CC(O)C(O)CCC(O)CC(O)CC(O)CC(=O)OC(C)C(C)C1O)CC(O)C2C(=O)O (stereo not given) [Nystatin] | 10.3
55 | O=C(NCC1CCCCN1)c1cc(OCC(F)(F)F)ccc1OCC(F)(F)F (stereo not given) [Flecainide] | 6.44
56 | CNC(C)C(=O)c1cccc(F)c1 (stereo not given) [Methcathinone (3-F-)] | 3.94
57 | CCC1C2CC3C4N(C)c5ccccc5C45CC(C2C5O)N3C1O (stereo not given) [Ajmaline] | 5.19
58 | CC1=C(C(=O)Nc2ccccc2)S(=O)(=O)CCO1 [Carboxin-Oxy] | 5.59
59 | CCCNC(C)C(=O)Nc1ccccc1C (stereo not given) [Prilocaine] | 4.69
60 | CCCCCCn1c(=O)c2c(ncn2C)n(C)c1=O [Pentifylline] | 9.44
61 | CCCN1CCCCC1C(=O)Nc1c(C)cccc1C (stereo not given) [Ropivacaine] | 5.39
62 | OC(c1ccc(Cl)cc1)(c1cncnc1)c1ccccc1Cl (stereo not given) [Fenarimol] | 10.1
63 | CCOP(=S)(OCC)SCS(=O)C(C)(C)C (stereo not given) [Terbufos-sulfoxide] | 9
64 | Cc1ccc(S(=O)(=O)NC(=O)NN2CCCCCC2)cc1 [Tolazamide] | 8.09
65 | CC1CC2C3CCC4=CC(=O)C=CC4(C)C3(F)C(O)CC2(C)C1(O)C(=O)CCl (stereo not given) [Clobetasol] | 9.44
66 | O=C(NC(=O)c1c(F)cccc1F)Nc1ccc(Oc2ccc(C(F)(F)F)cc2Cl)cc1F [Flufenoxuron] | 12.9

Row | SMILES | LC retention time [min]
67 | CC(=O)OCCC(SC(C)=O)=C(C)N(C=O)Cc1cnc(C)nc1N [Acetiamine] | 4.46
68 | O=C1CN=C(c2ccccc2)c2cc(Cl)ccc2N1 [Diazepam-Nor] | 9.23
69 | CC(C1CC1)C(O)(Cn1cncn1)c1ccc(Cl)cc1 (stereo not given) [Cyproconazole] | 9.89
70 | CNCCC=C1c2ccccc2COc2ccccc21 [Doxepin-Nor] | 7.03
71 | CC(Cc1ccccc1)NCCn1cnc2c1c(=O)n(C)c(=O)n2C (stereo not given) [Fenethylline] | 5.06
72 | COc1cc(OC)nc(NC(=O)NS(=O)(=O)N(C)S(C)(=O)=O)n1 [Amidosulfuron] | 6.77
73 | CC1(C)C(C(=O)OC(C#N)c2cccc(Oc3ccccc3)c2)C1C(Br)C(Br)(Br)Br (stereo not given) [Tralomethrin] | 13.6
74 | C=C(Cl)CSC(=S)N(CC)CC [Vegadex (Sulfallate)] | 11.1
75 | OC(CCN1CCCCC1)(c1ccccc1)C1CCCCC1 (stereo not given) [Trihexyphenidyl. Benzhexol] | 7.86
76 | CCC(c1cccc(O)c1)C(C)CN(C)C (stereo not given) [Tapentadol] | 5.01
77 | CNCCC=C1c2ccccc2CCc2ccccc21 [Triptyline-Nor] | 8.51
78 | O=S1OCC2C(CO1)C1(Cl)C(Cl)=C(Cl)C2(Cl)C1(Cl)Cl (stereo not given) [Endosulfan] | 11.2
79 | COc1cc2c(cc1OC)C13CCN4CC5=CCOC6CC(=O)N2C1C6C5CC43 (stereo not given) [Brucine] | 4.21
80 | CCC(=O)Nc1ccc(Cl)c(Cl)c1 [Propanil] | 9.38
81 | CCCC(Cn1cncn1)c1ccc(Cl)cc1Cl (stereo not given) [Penconazole] | 10.8
82 | C(=Cc1ccccc1)CN1CCN(C(c2ccccc2)c2ccccc2)CC1 [Cinnarizine] | 9.86
83 | NC(=O)c1ccc(N)cc1 [4-Aminobenzamide] | 2.37
84 | CC(=O)OCC(=O)C12N=C(C)OC1CC1C3CCC4=CC(=O)C=CC4(C)C3C(O)CC12C (stereo not given) [Deflazacort] | 9.35
85 | CCCCCCCCCCCC[N+](C)(C)Cc1ccccc1 [Benzododecinium (Benzyl-dimethyl-dodecylammonium)] | 11.2
